US20250197387A1, “BCL-XL DEGRADERS AND USES THEREOF” (Kymera Therapeutics, Inc., priority 2021, published 2025)
Like-named read-outs stand apart in the source and are kept apart here.

Target: T1, BCL-XL (Homo sapiens, UniProt Q07817)
T1 construct: endogenous in cells; host or cells: MOLT-4
Assay: BCL-XL degradation assay, western blot in MOLT-4 cells, 16 h
Assay type: cell-based
Details: for DC50: read-out: Bcl-xL WB in MOLT-4 degradation 16 h: Mean external-Abs DC50
Experimental: Compounds treatment: compounds were reconstituted in DMSO to make a stock concentration of 10 mM. MOLT-4 cells were maintained in RPMI-1640+10% FBS+1% Penicillin-Streptomycin. Cells were seeded into 6-well plates in 2 mL at the seeding density of 2e6 cells/mL. Compounds were added to the cells to a final concentration ranging 0.02-10 μM. After 16 hr incubation at 37° C., in a CO2 incubator, cells were collected in an Eppendorf tube and centrifuged at 200×g for 5 minutes, the supernatant removed and pellets washed with ice-cold PBS, centrifuged and supernatant removed again. Then. 50 μl of pre-chilled RIPA lysis buffer (Boston BioProducts. BP-115D) with protease and phosphatase inhibitors (Roche Applied Science. #04906837001 and #04693116001) was added into cell pellet to lyze the cells for 20 minutes under 4° C. Cell lysates were spin at 13000 rpm for 10 minutes. Supernatants were collected and protein concentration was measured by BCA assay kit (Solarbio. PC0020-500) following the manufacturer's protocol. Samples' final protein concentration was adjusted to 3.75 μg/uL with the RIPA lysis buffer based on BCA assay results and 4× loading buffer (Invitrogen. NP0007) was added into the samples and samples were heated to 85° C., for 10 min and then let cool at RT. Samples were centrifuged at 13000 rpm for 10 min and then loaded into a 26-well NuPAGER. Novex 4-12% Bis-Tris Midi Gel (Invitrogen. WG1403BOX) and run in NuPAGER MOPS SDS Running Buffer (Invitrogen. NP0001) for 180 minutes at 70 V into a XCell4 SureLock™ Midi-Cell Runner (Invitrogen. WR0100). Gel were transferred using the Invitrogen iBlot gel transfer device (Invitrogen. IB21001) and the nitrocellulose transfer stacks (Invitrogen, IB23001) with Program PO for 9 minutes. The membrane was then blocked with 5% bovin serum albumin for 1 hr at RT, then incubated with primary antibodies diluted in blocking buffer (LI-COR. 927-60001) and shake at 4° C., overnight. The primary antibodies were anti-BCL-xL antibody (CST. 2762:1:1000), anti-beta-actin (CST. 3700; 1:5000) and anti-GAPDH (CST. 97166:1:5000). Membranes were then washed three times with PBST for 15 minutes at RT. Secondary antibodies IR-Dye 680 CW Goat anti Mouse IgG (LI-COR. 926-68070) and IR-Dye 800 CW Goat anti Rabbit IgG (LI-COR. 926-32211) were diluted at a ratio of 1:10000 into PBST and membranes incubated for 1 hour at RT. Membranes were then washed three times with PBST for 15 minutes at RT. The western blot images were obtained using Odyssey Imaging System and quantified using Image Studio Lite Ver 5.2 software.
The letter codes for BCL-XL DC50 include: A (<0.01 μM); B (0.01-0.1 μM); C (>[…]); D (>0.5-1.0 μM); and E (>1.0 μM). The letter codes for Dmax % include A (>75%); B (50 to 75%); C (<50%).

[1] = western blot, MOLT-4 cells, 16 h, read-out: Bcl-xL WB in MOLT-4 degradation 16 h: Average Dmax %
[2] = western blot, MOLT-4 cells, 16 h

T1 sequence (Q07817 whole entry): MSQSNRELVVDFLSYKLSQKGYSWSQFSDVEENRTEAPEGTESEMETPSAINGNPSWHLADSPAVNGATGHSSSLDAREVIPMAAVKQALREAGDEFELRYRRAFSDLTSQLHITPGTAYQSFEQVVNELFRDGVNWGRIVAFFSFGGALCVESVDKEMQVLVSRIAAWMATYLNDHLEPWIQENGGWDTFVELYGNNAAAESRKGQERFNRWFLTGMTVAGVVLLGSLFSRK

Row | Structure (SMILES) | Dmax [1] | DC50 [2] | Dmax (MOLT-4, read-out: Bcl-xL WB in MOLT-4 degradation 16 h: Average Dmax %)
1 | Cc1ncsc1-c1ccc([C@H](C)NC(=O)[C@@H]2C[C@@H](O)CN2C(=O)[C@@H](NC(=O)CCCNC(=O)CCC2(Cn3ncc(-c4ccc(N5CCc6cccc(C(=O)Nc7nc8ccccc8s7)c6C5)nc4C(=O)O)c3C)CCCCC2)C(C)(C)C)cc1 [I-129] | > 75% | 100 to 500 nM | –
2 | Cc1ncsc1-c1ccc(CNC(=O)[C@@H]2C[C@@H](O)CN2C(=O)[C@@H](NC(=O)C2(F)CC2)C(C)(C)C)c(OCCCCCC(=O)N(C)CC#Cc2ccc(OCCCc3sc(N4CCc5cccc(C(=O)Nc6nc7ccccc7s6)c5C4)nc3C(=O)O)c(F)c2)c1 [I-7] | 50 to 75% | 500 to 1000 nM | –
3 | CC1(C)CCC(c2ccc(Cl)cc2)=C(CN2CCN(c3ccc(C(=O)NS(=O)(=O)c4ccc(N[C@H](CCN5CCN(C(=O)COc6cc(F)ccc6CNC(=O)[C@@H]6C[C@@H](O)CN6C(=O)[C@@H](NC(=O)C6(F)CC6)C(C)(C)C)CC5)CSc5ccccc5)c(S(=O)(=O)C(F)(F)F)c4)cc3)CC2)C1 [I-98] | < 50% | > 1000 nM | –
4 | Cc1ncsc1-c1ccc([C@H](C)NC(=O)[C@@H]2C[C@@H](O)CN2C(=O)[C@@H](NC(=O)CCc2ccc(S(=O)(=O)NC(=O)c3ccc(N4CCN(CC5=C(c6ccc(Cl)cc6)CCC(C)(C)C5)CC4)cc3)cc2)C(C)(C)C)cc1 [I-124] | < 50% | > 1000 nM | –
5 | Cc1cc(N(CCN(C)C(=O)CCCCCC(=O)N[C@H](C(=O)N2C[C@H](O)C[C@H]2C(=O)N[C@@H](C)c2ccc(-c3scnc3C)cc2)C(C)(C)C)c2ccc(-c3cnn(CC4CCCCC4)c3C)c(C(=O)O)n2)nnc1Nc1nc2ccccc2s1 [I-100] | 50 to 75% | 100 to 500 nM | –
6 | Cc1ncsc1-c1ccc(CNC(=O)[C@@H]2C[C@@H](O)CN2C(=O)[C@@H](NC(=O)C2(F)CC2)C(C)(C)C)c(O[C@H]2CC[C@H](C(=O)N3CCN(CC[C@H](CSc4ccccc4)Nc4ccc(S(=O)(=O)NC(=O)c5ccc(N6CCN(CC7=C(c8ccc(Cl)cc8)CCC(C)(C)C7)CC6)cc5)cc4S(=O)(=O)C(F)(F)F)CC3)CC2)c1 [I-89] | < 50% | > 1000 nM | –
7 | Cc1ncsc1-c1ccc(CNC(=O)[C@@H]2C[C@@H](O)CN2C(=O)[C@@H](NC(=O)C2(F)CC2)C(C)(C)C)c(O[C@H]2CC[C@@H](C(=O)N3CCN(CC[C@H](CSc4ccccc4)Nc4ccc(S(=O)(=O)NC(=O)c5ccc(N6CCN(CC7=C(c8ccc(Cl)cc8)CCC(C)(C)C7)CC6)cc5)cc4S(=O)(=O)C(F)(F)F)CC3)CC2)c1 [I-90] | < 50% | > 1000 nM | –
8 | Cc1ncsc1-c1ccc(CNC(=O)[C@@H]2C[C@@H](O)CN2C(=O)[C@@H](NC(=O)C2(F)CC2)C(C)(C)C)c(OCCCN2CCN(CC[C@H](CSc3ccccc3)Nc3ccc(S(=O)(=O)NC(=O)c4ccc(N5CCN(CC6=C(c7ccc(Cl)cc7)CCC(C)(C)C6)CC5)cc4)cc3S(=O)(=O)C(F)(F)F)CC2)c1 [I-132, (2S,4R)—N-(2-(3-(4-((R)-3-((4-(N-(4-(4-((4′-chloro-4,4-dimethyl-3,4,5,6-tetrahydro-[1,1′-biphenyl]-2-yl)methyl)piperazin-1-yl)benzoyl)sulfamoyl)-2-((trifluoromethyl)sulfonyl)phenyl)amino)-4-(phenylthio)butyl)piperazin-1-yl)propoxy)-4 (4-methylthiazol-5-yl)benzyl)-1-((S)-2-(1-fluorocyclopropanecarboxamido)-3,3-dimethylbutanoyl)-4-hydroxypyrrolidine-2-carboxamide] | – | 10 to 100 nM | > 75%
9 | Cc1cc(N(CCCC(=O)N[C@H](C(=O)N2C[C@H](O)C[C@H]2C(=O)N[C@@H](C)c2ccc(-c3scnc3C)cc2)C(C)(C)C)c2ccc(-c3cnn(CC4CCCCC4)c3C)c(C(=O)O)n2)nnc1Nc1nc2ccccc2s1 [I-113] | < 50% | > 1000 nM | –
10 | Cc1ncsc1-c1ccc(CNC(=O)[C@@H]2C[C@@H](O)CN2C(=O)[C@@H](NC(=O)C2(F)CC2)C(C)(C)C)c(OCCCC(=O)N(C)CCCc2cccc(F)c2OCCCc2sc(N3CCc4cccc(C(=O)Nc5nc6ccccc6s5)c4C3)nc2C(=O)O)c1 [I-12] | 50 to 75% | 500 to 1000 nM | –
11 | Cc1ncsc1-c1ccc(CNC(=O)[C@@H]2C[C@@H](O)CN2C(=O)C(c2cc(OCCCC(=O)N3CCN(CC[C@H](CSc4ccccc4)Nc4ccc(S(=O)(=O)NC(=O)c5ccc(N6CCN(CC7=C(c8ccc(Cl)cc8)CCC(C)(C)C7)CC6)cc5)cc4S(=O)(=O)C(F)(F)F)CC3)no2)C(C)C)cc1 (stereo partly shown) [I-38] | 50 to 75% | 100 to 500 nM | –
12 | Cc1ncsc1-c1ccc([C@H](C)NC(=O)[C@@H]2C[C@@H](O)CN2C(=O)[C@@H](NC(=O)CCc2cccc(F)c2OCCCc2sc(N3CCc4cccc(C(=O)Nc5nc6ccccc6s5)c4C3)nc2C(=O)O)C(C)(C)C)cc1 [I-30] | < 50% | > 1000 nM | –
13 | Cc1ncsc1-c1ccc([C@H](C)NC(=O)[C@@H]2C[C@@H](O)CN2C(=O)[C@@H](NC(=O)CCCS(=O)(=O)NC(=O)c2nc(N3CCc4cccc(C(=O)Nc5nc6ccccc6s5)c4C3)ccc2-c2cnn(CC34CC5CC(CC(C5)C3)C4)c2C)C(C)(C)C)cc1 [I-117] | > 75% | < 10 nM | –
14 | Cc1ncsc1-c1ccc(CNC(=O)[C@@H]2C[C@@H](O)CN2C(=O)[C@@H](NC(=O)C2(F)CC2)C(C)(C)C)c(O[C@H]2CC[C@H](N3CCN(CC[C@H](CSc4ccccc4)Nc4ccc(S(=O)(=O)NC(=O)c5ccc(N6CCN(CC7=C(c8ccc(Cl)cc8)CCC(C)(C)C7)CC6)cc5)cc4S(=O)(=O)C(F)(F)F)CC3)CC2)c1 (single isomer, unassigned) [I-114] | < 50% | > 1000 nM | –
15 | Cc1ncsc1-c1ccc([C@H](C)NC(=O)[C@@H]2C[C@@H](O)CN2C(=O)[C@@H](NC(=O)CCCC(=O)N(C)CCCc2cccc(F)c2OCCCc2sc(N3CCc4cccc(C(=O)Nc5nc6ccccc6s5)c4C3)nc2C(=O)O)C(C)(C)C)cc1 [I-9] | > 75% | 100 to 500 nM | –
16 | Cc1ncsc1-c1ccc([C@H](C)NC(=O)[C@@H]2C[C@@H](O)CN2C(=O)[C@@H](NC(=O)CCCCCC(=O)N2CCN(CC[C@@H](CSc3ccccc3)Nc3ccc(S(=O)(=O)NC(=O)c4ccc(N5CCC(C)(C)CC5)cc4)cc3S(=O)(=O)C(F)(F)F)CC2)C(C)(C)C)cc1 [I-393] | < 50% | > 1000 nM | –
17 | Cc1ncsc1-c1ccc(CNC(=O)[C@@H]2C[C@@H](O)CN2C(=O)[C@@H](NC(=O)CCCC(=O)N(C)CCN(C)c2cc3c(c(C(=O)Nc4nc5ccccc5s4)c2)CN(c2ccc(-c4cnn(CC5CCCCC5)c4C)c(C(=O)O)n2)CC3)C(C)(C)C)cc1 [I-109] | < 50% | > 1000 nM | –
18 | Cc1ncsc1-c1ccc([C@H](C)NC(=O)[C@@H]2C[C@@H](O)CN2C(=O)[C@@H](NC(=O)C[C@H]2CC[C@H](C(=O)N3CCN(CC[C@H](CSc4ccccc4)Nc4ccc(S(=O)(=O)NC(=O)c5ccc(N6CCN(CC7=C(c8ccc(Cl)cc8)CCC(C)(C)C7)CC6)cc5)cc4S(=O)(=O)C(F)(F)F)CC3)CC2)C(C)(C)C)cc1 [I-390] | > 75% | 10 to 100 nM | –
19 | Cc1ncsc1-c1ccc([C@H](C)NC(=O)[C@@H]2C[C@@H](O)CN2C(=O)[C@@H](NC(=O)CCCCCCCCC(=O)N2CCN(CC[C@H](CSc3ccccc3)Nc3ccc(S(=O)(=O)NC(=O)c4ccc(N5CCN(CC6=C(c7ccc(Cl)cc7)CCC(C)(C)C6)CC5)cc4)cc3S(=O)(=O)C(F)(F)F)CC2)C(C)(C)C)cc1 [I-1, (2S,4R)-1-((S)-2-(10-(4-((R)-3-((4-(N-(4-(4-((4′-chloro-4,4-dimethyl-3,4,5,6-tetrahydro-[1,1′-biphenyl]-2-yl)methyl)piperazin-1-yl)benzoyl)sulfamoyl)-2-((trifluoromethyl)sulfonyl)phenyl)amino)-4-(phenylthio)butyl)piperazin-1-yl)-10-oxodecanamido)-3,3-dimethylbutanoyl)-4-hydroxy-N-((S)-1-(4-(4-methylthiazol-5-yl)phenyl)ethyl)pyrrolidine-2-carboxamide] | > 75% | 100 to 500 nM | –
20 | Cc1cc(N(CCN(C)C(=O)CCCC(=O)N[C@H](C(=O)N2C[C@H](O)C[C@H]2C(=O)N[C@@H](C)c2ccc(-c3scnc3C)cc2)C(C)(C)C)c2ccc(-c3cnn(CC4CCCCC4)c3C)c(C(=O)O)n2)nnc1Nc1nc2ccccc2s1 [I-99] | 50 to 75% | > 1000 nM | –
